According to BindingDB's records for doi:10.1021/jm00017a010 (Sapienza University of Rome, 1995):

Biological target: T1, Gag-Pol polyprotein [588-1027]/[588-1147] (Human immunodeficiency virus 1, UniProt P04585)
T1 construct: 588-1027; 588-1147
Assay: HIV-1 RT Assay
Source text: The IC50 of reverse transcriptase is the concentration that inhibits 50% of recombinant HIV-1 RT RNA-directed DNA polymerase activity in vitro.

Row | Compound | IC50 (pH 7.8, 37 °C) [µM] | IC50 [µM]
1 | Cc1cccc(Cc2nc(S)nc(O)c2C)c1 [4-Hydroxy-2-mercapto-5-methyl-6-(3-methylbenzyl)pyrimidine] | > 10 | 
2 | Cc1cccc(Cc2cc(=O)[nH]c(=S)[nH]2)c1 [6-[(3-methylphenyl)methyl]-2-sulfanylidene-1,2,3,4-tetrahydropyrimidin-4-one] | > 10 | 
3 | Cc1c(O)nc(S)nc1Cc1ccccc1 [6-benzyl-4-hydroxy-2-mercapto-5-methylpyrimidine] | > 10 | 
4 | CC1(C)C(=O)NC(SC2CCCC2)=N/C1=C/c1ccccc1 [(6E)-2-(cyclopentylsulfanyl)-5,5-dimethyl-6-(phenylmethylidene)-3,4,5,6-tetrahydropyrimidin-4-one] |  | > 10
5 | CC(C)Sc1nc(Cc2ccccc2)cc(=O)[nH]1 [S-DABO] | > 10 | 
6 | CC1(C)C(=O)NC(SC2CCCCC2)=N/C1=C/c1ccccc1 [S-DABO] |  | > 10
7 | CSc1nc(Cc2ccccc2)cc(=O)[nH]1 [S-DABO] | > 10 | 
8 | CSc1nc(O)cc(Cc2cccc(C)c2)n1 [S-DABO] | > 10 | 
